Read-outs that look alike come from different tables or passages of the source.
System: FaDu (human head and neck cancer) cells
Experiment: In-vitro MTS assay (cytotoxicity, Compound A alone and with radiation)
Assay type: cell-based
Conditions: for cytotoxicity at 0.7 µM / cytotoxicity at 1 µM / cytotoxicity at 2 µM: FaDu, no radiation; for cytotoxicity at 0.7 µM: 0.7 μM Compound A (IC30) alone; for cytotoxicity at 1 µM: 1 μM Compound A (IC50) alone; for cytotoxicity at 2 µM: 2 μM Compound A (IC70) alone; for Combination index (CI): CompuSyn
Source text: The assay has been carried out according to the method described in Molecular Cancer Therapeutics, 2007, 6(9); the disclosure of which is incorporated by reference for the teaching of the assay. MTS (Promega, Cat #G1111) is a tetrazolium compound ((3-(4,5-dimethylthiazol-2-yl)-5-(3-carboxymethoxyphenyl)-2-(4-sulphophenyl)-2H-tetrazolium, inner salt; MTS) for use in colorimetric assays for determining the number of viable cells in proliferation, cytotoxicity or chemosensitivity assays. This is used with an electron coupling reagent PMS (Phenazine methosulfate). MTS is bioreduced by cells into a formazan that is soluble in tissue culture medium. The absorbance of the formazan at 490 nm can be measured directly from 96 well assay plates without additional processing. Dehydrogenase enzymes found in metabolically active cells accomplish the conversion of MTS into the aqueous soluble formazan. The quantity of formazan product as measured at 490 nm absorbance is directly proportional to the number of living cells in culture. Before testing the effect of Compound A on radiosensitivity of FaDu (human head and neck cancer, ATCC, USA) cells, the dose dependent cytotoxicity of Compound A alone was determined using MTS assay. Tumor cells were incubated in the presence of various concentrations of Compound A for 48 h and subjected to MTS assay. […] The Fa-Du (human head and neck cancer, ATCC, USA) cells were seeded at density of 1500 cells/well in 180 μL of MEM (minimum essential medium) in tissue culture grade 96-well plate and allowed to grow for 24 h in humidified 5% CO2 incubator at 37±1° C. Three identical groups of cells were made. After a time interval of 24 h after seeding, different wells of the first and second group of cells were irradiated at room temperature at dose of 2, 4, 6, 8 and 10 Gy respectively. The second group was further treated 24 h after irradiation (i.e. on the third day of the experiment) with IC30 concentration of Compound A. The third group was treated on the third day of the experiment, with IC30 concentration of Compound A alone. In order to obtain IC30 concentration (0.7 μM) of Compound A in any well, 20 μL of a stock solution of concentration 10×IC30, (i.e. 7 μM) was added to the well (dissolved first in DMSO and then in cell medium, final DMSO concentration should not exceed 0.5%) and diluted to 200 μL with MEM. The wells were incubated for 48 h and 96 h respectively, in humidified 5% CO2 incubator at 37±1° C. After completion of 48 h and 96 h respectively, the medium was removed from all wells and fresh MEM was added and the plates were incubated further for additional 4-6 days or for total of 8-10 days from the start of the experiment. At the end of the experiment, the medium was removed from all wells and 20 μL of MTS (2 mg/ml in phosphate buffer saline, pH 6-6.5 and filter sterilized) and 1 μL of PMS (3 mM in PBS, pH 7.3 and filter sterilized) was added per well along with the cell medium to adjust the total volume to 200 μL/well. The plate was incubated for 2-4 h in humidified 5% CO2 incubator at 37±1° C. The plate was read at 490 nm on Spectrophotometer (SpectraMax, Molecular Devices, USA), and the percentage cytotoxicity using SoftMax, software for SpectraMax was calculated. The above experiment was repeated using IC50 and IC70 concentrations of Compound A. The enhancement in radiation effects in FaDu cell line as evaluated using the CompuSyn software by Chou and Talalay, described in Pharmacological Reviews, 2006, 58, 621-681, which is incorporated herewith by reference. Combination index (CI) is used to evaluate if a combination is additive, synergistic or antagonistic. CI<1 is synergistic, CI=1 is additive and CI>1 is antagonistic. For example, at a treatment of 48 h with a concentration of IC70 of Compound A, the combination was synergistic (CI=0.7) at all the doses of radiation. The combination index in both the cases ie. […]

[1] = Compound A alone, 48 h incubation, FaDu cells
[2] = Homo sapiens, 48 h, read-out: % cytotoxicity 48 h after Compound A treatment
[3] = Homo sapiens, 96 h, read-out: % cytotoxicity 96 h after Compound A treatment

CN1CC[C@@H](c2c(O)cc(O)c3c(=O)cc(-c4ccccc4Cl)oc23)[C@@H]1CO.Cl [Compound A, (+)-trans-2-(2-Chlorophenyl)-5,7-dihydroxy-8-(2-hydroxymethyl-1-methyl-pyrrolidin-3-yl)-chromen-4-one hydrochloride]
% cytotoxicity 48 h after Compound A treatment (2 Gy radiation, then 0.7 μM Compound A (IC30) 24 h after radiation, 48 h): 23% | % cytotoxicity 96 h after Compound A treatment (2 Gy radiation, then 0.7 μM Compound A (IC30) 24 h after radiation, 96 h): 15% | % cytotoxicity 48 h after Compound A treatment (2 Gy radiation, then 1 μM Compound A (IC50) 24 h after radiation, 48 h): 35% | % cytotoxicity 48 h after Compound A treatment (2 Gy radiation, then 2 μM Compound A (IC70) 24 h after radiation, 48 h): 79% | % cytotoxicity 96 h after Compound A treatment (2 Gy radiation, then 2 μM Compound A (IC70) 24 h after radiation, 96 h): 98% | % cytotoxicity 48 h after Compound A treatment (4 Gy radiation, then 0.7 μM Compound A (IC30) 24 h after radiation, 48 h): 35% | % cytotoxicity 96 h after Compound A treatment (4 Gy radiation, then 0.7 μM Compound A (IC30) 24 h after radiation, 96 h): 31% | % cytotoxicity 48 h after Compound A treatment (4 Gy radiation, then 1 μM Compound A (IC50) 24 h after radiation, 48 h): 50% | % cytotoxicity 96 h after Compound A treatment (4 Gy radiation, then 1 μM Compound A (IC50) 24 h after radiation, 96 h): 37% | % cytotoxicity 48 h after Compound A treatment (4 Gy radiation, then 2 μM Compound A (IC70) 24 h after radiation, 48 h): 86% | % cytotoxicity 96 h after Compound A treatment (4 Gy radiation, then 2 μM Compound A (IC70) 24 h after radiation, 96 h): 96% | % cytotoxicity 48 h after Compound A treatment (6 Gy radiation, then 0.7 μM Compound A (IC30) 24 h after radiation, 48 h): 64% | % cytotoxicity 96 h after Compound A treatment (6 Gy radiation, then 0.7 μM Compound A (IC30) 24 h after radiation, 96 h): 60% | % cytotoxicity 48 h after Compound A treatment (6 Gy radiation, then 1 μM Compound A (IC50) 24 h after radiation, 48 h): 73% | % cytotoxicity 96 h after Compound A treatment (6 Gy radiation, then 1 μM Compound A (IC50) 24 h after radiation, 96 h): 77% | % cytotoxicity 48 h after Compound A treatment (6 Gy radiation, then 2 μM Compound A (IC70) 24 h after radiation, 48 h): 89% | % cytotoxicity 96 h after Compound A treatment (6 Gy radiation, then 2 μM Compound A (IC70) 24 h after radiation, 96 h): 96% | % cytotoxicity 48 h after Compound A treatment (8 Gy radiation, then 0.7 μM Compound A (IC30) 24 h after radiation, 48 h): 79% | % cytotoxicity 96 h after Compound A treatment (8 Gy radiation, then 0.7 μM Compound A (IC30) 24 h after radiation, 96 h): 69% | % cytotoxicity 48 h after Compound A treatment (8 Gy radiation, then 1 μM Compound A (IC50) 24 h after radiation, 48 h): 85% | % cytotoxicity 96 h after Compound A treatment (8 Gy radiation, then 1 μM Compound A (IC50) 24 h after radiation, 96 h): 84% | % cytotoxicity 48 h after Compound A treatment (8 Gy radiation, then 2 μM Compound A (IC70) 24 h after radiation, 48 h): 91% | % cytotoxicity 96 h after Compound A treatment (8 Gy radiation, then 2 μM Compound A (IC70) 24 h after radiation, 96 h): 95% | % cytotoxicity 48 h after Compound A treatment (10 Gy radiation, then 0.7 μM Compound A (IC30) 24 h after radiation, 48 h): 80% | % cytotoxicity 96 h after Compound A treatment (10 Gy radiation, then 0.7 μM Compound A (IC30) 24 h after radiation, 96 h): 85% | % cytotoxicity 48 h after Compound A treatment (10 Gy radiation, then 1 μM Compound A (IC50) 24 h after radiation, 48 h): 86% | % cytotoxicity 96 h after Compound A treatment (10 Gy radiation, then 1 μM Compound A (IC50) 24 h after radiation, 96 h): 90% | % cytotoxicity 48 h after Compound A treatment (10 Gy radiation, then 2 μM Compound A (IC70) 24 h after radiation, 48 h): 91% | % cytotoxicity 96 h after Compound A treatment (10 Gy radiation, then 2 μM Compound A (IC70) 24 h after radiation, 96 h): 94% | IC30 [1]: 0.7 µM | IC70 [1]: 2 µM | cytotoxicity at 0.7 µM [2]: 8% | cytotoxicity at 0.7 µM [3]: 4% | cytotoxicity at 1 µM [2]: 20% | cytotoxicity at 1 µM [3]: 25% | cytotoxicity at 2 µM [2]: 66% | cytotoxicity at 2 µM [3]: 83% | IC50 (Homo sapiens, Compound A alone, 48 h incubation, FaDu cells): 1 µM | Enhancement in radiation effects (combination class) (radiation 6, 8 and 10 Gy followed by Compound A at IC30 for 48 h): synergistic (CI<1 is synergistic) | Enhancement in radiation effects (combination class) (radiation 6, 8 and 10 Gy followed by Compound A at IC50 for 48 h): synergistic (CI<1 is synergistic) | Combination index (CI) (radiation + Compound A at IC30, 96 h treatment, all doses of radiation): 1 | Combination index (CI) (radiation + Compound A at IC50, 96 h treatment, all doses of radiation): 1 | Combination index (CI) (radiation + Compound A at IC70, 48 h treatment, all doses of radiation): 0.7 | Combination index (CI) (radiation + Compound A at IC70, 96 h treatment, at 2, 4 and 6 Gy): < 1

Source: patent US8895605B2, “Pyrrolidine-substituted flavones as radio-sensitizers for use in the treatment of cancer” (Piramal Enterprises Limited, priority 2009, dated 2014)
